Measured values reported in PMC6036970, “Natural and redesigned wasp venom peptides with selective antitumoral activity” (Beilstein Journal of Organic Chemistry, 2018).
pIC50: −log10 of the molar value. Where no end group is shown, it is not given here.

How the values were obtained:
[1] = tested on: MCF-7 breast cancer cells; assay: MTT cytotoxicity assay on MCF-7 cancer cells; assay type: cell-based; conditions: for IC50 against MCF-7 / pIC50: MCF-7, 24 h, read at 570 nm; for IC50 against MCF-7 / pIC50 / LD50 / concentration achieving >50% of cancer cell lysis: MTT, triplicate; for effect on cell viability 2 h post-exposure: after 2 h; for inhibition of cancer cell growth: dose of ≈50 μmol L^−1; for inhibition of cell viability: 50 μmol L^−1 after 2 h; for pIC50: read-out: IC50 against MCF-7; for LD50 / concentration achieving >50% of cancer cell lysis: MCF-7, after 24 h
Method: (§1) MCF-7 cells (ATCC) were maintained in RPMI 1640 medium supplemented with 10% heat inactivated FBS and 100 μg mL^−1 penicillin/10 μg mL^−1 streptomycin. One day before the assays, the cells were plated in 96-well microtiter plates with a density of 2.0 × 10^4 cells/well at 37 °C and 5% CO2. On the next day, cells were treated with peptides serial dilutions (0.09–50 μmol L^–1), incubated in individual microtiter plates for 2 and 24 h and MTT assays were performed after treatment. Human breast epithelial cells MCF-10A (ATCC) were maintained in a mixture of Dulbecco’s Modified Eagle’s Medium and Ham’s F12 nutrient mixture supplemented with 5% inactivated horse serum, 10 μg mL^−1 insulin, 0.02 μg mL^−1 human epidermal growth factor, 0.5 μg mL^−1 hydrocortisone, 0.10 μg mL^−1 choleric toxin, 100 U mL^−1 penicillin, and 100 μg mL^−1 streptomycin. The cells were preincubated for 24 h, plated in 96-well microtiter plates with a density of 2.0 × 10^4 cells/well at 37 °C and 5% CO2. On the next day, cells were treated with peptides serial dilutions (25 to 100 μmol L^−1), incubated in individual microtiter plates for 4 and 24 h and MTT assay was performed after treatment. Experiments were performed in triplicate.
(§2) Briefly, MTT (Sigma-Aldrich) was dissolved in water and filtered to make up a […] solution. 30 μL of this solution were added to all the wells which already contained peptide-treated cells and kept at 37 °C for 45 minutes. Subsequently, the solution was discarded and replaced with 150 μL/well of DMSO and followed by gentle shaking for 15 minutes. Finally, the microplates were read on an ELISA reader at 570 nm. Experiments were performed in triplicate.

[2] = tested on: human red blood cells; conditions: ref Torres et al. [9]–[10]; cited from earlier work
Excerpt: Table 1 Theoretical physicochemical properties and hemolytic activity of decoralin and its synthetic analogs.^a

[3] = tested on: MCF-10A normal cells; assay: MTT cytotoxicity assay on MCF-10A normal cells; assay type: cell-based, human; conditions: for cytotoxicity against MCF-10A normal cells: up to higher concentrations (≈100 μmol L^−1)
Method: as §1, §2

[4] = tested on: MCF-7 cells; assay: AFM measurement of cell membrane roughness; assay type: cell-based; conditions: MCF-7, 50 μmol L^−1, 24 h, AFM contact mode, Ra and Rq
Method: The AFM imaging of MCF-7 cells untreated (control) and treated with peptide (50 μmol L^−1 solutions of Dec-NH2 and [Leu]^8-Dec-NH2, which presented low activity when compared to other analogs and was used here as a treated control) was performed using an Agilent Technologies 5500 AFM/SPM microscope that was in contact mode and a Nanosensors™ PPP-CONT probe (NanoSensors; PPP-Cont-20, PointProbe-Plus Silicon-SPM-Sensor). The material properties and dimensions of the AFM tips used in this experiment were as follows: resonance frequency of 6–21 kHz, force constant of 0.02–0.77 N m^−1, cantilever length of 450 ± 10 μm, cantilever width of 50 ± 7.5 μm, cantilever thickness of 2 ± 1 μm, tip height of 10–15 μm and resistivity of 0.01–0.02 Ω cm. The assays were performed in triplicate; image processing and roughness determinations were performed with the aid of the Gwyddion software (http://gwyddion.net/download.php). In order to compare the cell surface, we used two roughness parameters, the mean roughness (Ra) and the mean square of Z data (Rq), where N is the difference between the highest and the lowest points in the analyzed area. […]
The root mean square of the Z values Rq is the standard deviation of the N values in the area analyzed and is given by Equation 2: […]

[5] = tested on: Gram-positive bacteria, Gram-negative bacteria, and fungi; conditions: ref Torres et al. [9]; cited from earlier work

Substance: RLLSLIRKLIT-NH2 [[Arg]^1-Dec-NH2, synthetic analog of Dec-NH2]
- IC50 against MCF-7 [1]: 50.0 µM
- effect on cell viability 2 h post-exposure ([1]; MCF-7, MTT): significant decreased cell viability
- inhibition of cancer cell growth ([1]; MCF-7, MTT): substantial inhibition
- MHC (maximal non-hemolytic concentration) [2]: 25.00 µmol/L

Substance: SFLSLIRKLIT-NH2 [[Phe]^2-Dec-NH2, synthetic analog of Dec-NH2]
- IC50 against MCF-7 [1]: 50.0 µM
- inhibition of cell viability ([1]; MCF-7, MTT): inhibited cell viability the most
- inhibition of cancer cell growth ([1]; MCF-7, MTT): substantial inhibition
- MHC (maximal non-hemolytic concentration) [2]: 3.12 µmol/L

Substance: SLLPLIRKLIT-NH2 [[Pro]^4-Dec-NH2]
- pIC50 [1]: 4.60
- MHC (maximal non-hemolytic concentration) [2]: 12.50 µmol/L

Substance: SLLSLFRKLI-NH2 [[Phe]^6-Des[Thr]^11-Dec-NH2, synthetic analog of Dec-NH2]
- IC50 against MCF-7 [1]: 50.0 µM
- inhibition of cell viability ([1]; MCF-7, MTT): inhibited cell viability the most
- inhibition of cancer cell growth ([1]; MCF-7, MTT): substantial inhibition
- MHC (maximal non-hemolytic concentration) [2]: 12.50 µmol/L

Substance: SLLSLFRKLIT-NH2 [[Phe]^6-Dec-NH2]
- pIC50 [1]: < 4.30
- effect on cell viability 2 h post-exposure ([1]; MCF-7, MTT): did not show significant inhibition
- MHC (maximal non-hemolytic concentration) [2]: 3.12 µmol/L

Substance: SLLSLIRKLIT-NH2 [Dec-NH2]
- pIC50 [1]: 4.90
- LD50 / concentration achieving >50% of cancer cell lysis [1]: 12.5 µmol/L
- cytotoxicity against MCF-10A normal cells [3]: no significant cytotoxicity
- MHC (maximal non-hemolytic concentration) [2]: 1.56 µmol/L

Substance: SLLSLIRKLIW-NH2 [[Trp]^11-Dec-NH2]
- pIC50 [1]: 4.60
- MHC (maximal non-hemolytic concentration) [2]: 1.56 µmol/L

Substance: SLLSLIRKLLT-NH2 [[Leu]^10-Dec-NH2]
- pIC50 [1]: 4.90
- LD50 / concentration achieving >50% of cancer cell lysis [1]: 12.5 µmol/L
- cytotoxicity against MCF-10A normal cells [3]: no significant cytotoxicity
- MHC (maximal non-hemolytic concentration) [2]: 25.00 µmol/L

Substance: SLLSLIRLLIT-NH2 [[Leu]^8-Dec-NH2]
- pIC50 [1]: < 4.30
- activity against MCF-7 cells compared to the negative control ([1]; MCF-7, MTT): did not present significant activity
- cytotoxicity towards normal MCF-10A cells ([3]; lowest concentration tested (25 μmol L^−1)): cytotoxic
- change of membrane roughness [4]: did not significantly change membrane roughness
- MHC (maximal non-hemolytic concentration) [2]: 50.00 µmol/L
- antimicrobial activity (order of magnitude) [5]: ~10^1 μmol L^−1
